T/C data for 30 compounds are collected here from PubChem BioAssay AID330 (DTP/NCI, 2004).

This assay deals with P388 leukemia ip, CD2F1 mice, survival T/C. Put plainly: NCI In Vivo Anticancer Drug Screen. Data for tumor model P388 Leukemia (intraperitoneal) in CD2F1 (CDF1) mice. To be noted: endpoint: median survival time, higher = longer survival. In outline:
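Mice carrying the transplanted tumor received test compound or vehicle. Survival was recorded in each group, and the value is the treated-group measurement divided by that of the vehicle-treated control group.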

The mark [1] stands for this setting: dose: 50.0 mg/kg/injection, schedule: Q01DX005 (ip), vehicle: saline with Tween-80.
Where [2] appears, read: dose: 100.0 mg/kg/injection, schedule: Q01DX005 (ip), vehicle: saline with Tween-80.
[3] abbreviates: dose: 200.0 mg/kg/injection, schedule: Q01DX005 (ip), vehicle: saline with Tween-80.
Setting [4] is: dose: 25.0 mg/kg/injection, schedule: Q01DX009 (ip), vehicle: Klucel (hydroxypropylcellulose) (HPC).
The mark [5] stands for this setting: dose: 60.0 mg/kg/injection, schedule: Q01DX005 (ip), vehicle: Klucel (hydroxypropylcellulose) (HPC).
The mark [6] stands for this setting: dose: 120.0 mg/kg/injection, schedule: Q01DX005 (ip), vehicle: Klucel (hydroxypropylcellulose) (HPC).
The mark [7] stands for this setting: dose: 240.0 mg/kg/injection, schedule: Q01DX005 (ip), vehicle: Klucel (hydroxypropylcellulose) (HPC).
Where [8] appears, read: dose: 50.0 mg/kg/injection, schedule: Q01DX009 (ip), vehicle: saline with Tween-80.
Where [9] appears, read: dose: 100.0 mg/kg/injection, schedule: Q01DX009 (ip), vehicle: saline with Tween-80.
[10] abbreviates: dose: 200.0 mg/kg/injection, schedule: Q01DX009 (ip), vehicle: saline with Tween-80.
Where [11] appears, read: dose: 120.0 mg/kg/injection, schedule: Q01DX005 (ip), vehicle: saline with Tween-80.
Setting [12] is: dose: 240.0 mg/kg/injection, schedule: Q01DX005 (ip), vehicle: saline with Tween-80.
Setting [13] is: dose: 25.0 mg/kg/injection, schedule: Q01DX009 (ip), vehicle: saline with Tween-80.
Setting [14] is: dose: 60.0 mg/kg/injection, schedule: Q01DX005 (ip), vehicle: saline with Tween-80.
Setting [15] is: dose: 50.0 mg/kg/injection, schedule: Q01DX005 (ip), vehicle: Klucel (hydroxypropylcellulose) (HPC).
The mark [16] stands for this setting: dose: 100.0 mg/kg/injection, schedule: Q01DX005 (ip), vehicle: Klucel (hydroxypropylcellulose) (HPC).

“And” between values parts separate entries of the source, which are not always exact repeats. Identical values can stand only once. Toxic doses and inconclusive results are not listed.

On to `O=C(CN1C(=O)c2ccccc2C1=O)C(O)CN1C(=O)c2ccccc2C1=O` (stereo not given), for which the T/C under setting [1] is 94 % of control, the T/C under setting [2] was 94 % of control and the T/C under setting [3] was 100 % of control.

As for `CCOc1ccc(OCC)c(C(O)C(C)NC(C)C)c1` (stereo not given), the T/C reads like this: (dose: 6.25 mg/kg/injection, schedule: Q01DX009 (ip), vehicle: Klucel (hydroxypropylcellulose) (HPC)) 101 % of control; (dose: 12.5 mg/kg/injection, schedule: Q01DX009 (ip), vehicle: Klucel (hydroxypropylcellulose) (HPC)) 100 % of control; under setting [4], 99 % of control and 115 % of control.

On to `Cn1cnc([N+](=O)[O-])c1Sc1cn(C2CC(O)C(CO)O2)c(=O)[nH]c1=O` (stereo not given), for which the T/C under setting [5] was 101 % of control, the T/C under setting [6] was 102 % of control and the T/C under setting [7] was 107 % of control.

Take `Cc1ccc(SC(=O)N2CCN(C(=O)Sc3ccc(C)cc3)CC2)cc1`: the T/C (dose: 50.0 mg/kg/injection, schedule: Q01DX009 (ip), vehicle: Klucel (hydroxypropylcellulose) (HPC)) was 93 % of control and the T/C (dose: 100.0 mg/kg/injection, schedule: Q01DX009 (ip), vehicle: Klucel (hydroxypropylcellulose) (HPC)) is 89 % of control.

For `O=[N+]([O-])c1ccc2c(N3CCC(CCCC4CCN(c5ncnc6cc([N+](=O)[O-])ccc56)CC4)CC3)ncnc2c1`, the T/C by setting is: under setting [1], 89 % of control; under setting [2], 96 % of control; under setting [3], 100 % of control.

On to `O=c1[nH]nc(/C=C/C=C/c2ccccc2)c(=O)[nH]1`, for which the T/C (dose: 100.0 mg/kg/injection, schedule: Q01DX001 (ip), vehicle: saline) was 97 % of control; the T/C (dose: 200.0 mg/kg/injection, schedule: Q01DX001 (ip), vehicle: saline) was 101 % of control; the T/C (dose: 400.0 mg/kg/injection, schedule: Q01DX001 (ip), vehicle: saline) is 90 % of control.

`CSCS(=O)C[C@H](CO)NC(=O)/C=C/c1c(C)[nH]c(=O)[nH]c1=O` (stereo not given in full): the T/C is, setting by setting: (dose: 0.08 mg/kg/injection, schedule: Q01DX009 (ip), vehicle: other) 97 % of control; (dose: 0.4 mg/kg/injection, schedule: Q01DX009 (ip), vehicle: water) 94 % of control; (dose: 0.5 mg/kg/injection, schedule: Q01DX009 (ip), vehicle: water) 95 % of control.

With `CN(C)P1(=O)NCC(C)(C)CO1` (stereo not given), the T/C is 104 % of control (dose: 50.0 mg/kg/injection, schedule: Q01DX005 (ip), vehicle: saline); 96 % of control (dose: 100.0 mg/kg/injection, schedule: Q01DX005 (ip), vehicle: saline); 96 % of control (dose: 200.0 mg/kg/injection, schedule: Q01DX005 (ip), vehicle: saline).

`C=C(C)C(C(=O)OC(c1ccccc1)c1ccccc1)N1C(=O)C(NC(=O)COc2ccccc2)C1SSc1nc2ccccc2s1` (stereo not given): the T/C by setting is: under setting [1], 94 % of control; under setting [2], 89 % of control; under setting [3], 93 % of control.

`CCCCCCC(=O)/C=C/c1ccc2c(c1)OCO2`: the T/C is, setting by setting: under setting [8], 96 % of control; under setting [9], 102 % of control; under setting [10], 91 % of control.

For `CC1(C)C(=O)N2C(=O)CC(=O)N2C1=O`, the T/C was 97 % of control under setting [11] and 93 % of control under setting [12].

Take `O=C(O)c1cc(Br)cc(SSc2cc(Br)cc(C(=O)O)c2O)c1O`: the T/C under setting [8] is 96 % of control.

With `CCCC(NC(=O)c1ccccc1)C(=O)O` (stereo not given), the T/C by setting is: under setting [8], 100 % of control; under setting [9], 99 % of control; under setting [10], 99 % of control.

For `CC(C)C1=C(O)C2=C(C(=O)C1=O)C1(C)CCCC(C)(C)C1CC2O` (stereo not given), the T/C was 100 % of control under setting [13], 104 % of control under setting [8] and 108 % of control under setting [10].

On to `OC(CCl)c1ccc2ccc3c(c2c1)Nc1ccccc1S3` (stereo not given), for which the T/C is 107 % of control (dose: 100.0 mg/kg/injection, schedule: Q04DX003 (ip), vehicle: Klucel (hydroxypropylcellulose) (HPC)); 104 % of control (dose: 200.0 mg/kg/injection, schedule: Q04DX003 (ip), vehicle: Klucel (hydroxypropylcellulose) (HPC)); 102 % of control (dose: 400.0 mg/kg/injection, schedule: Q04DX003 (ip), vehicle: Klucel (hydroxypropylcellulose) (HPC)).

Take `COC(OC)/C(C)=N/NC1=Nc2ccc(Cl)cc2C(c2ccccc2Cl)=NC1`: the T/C is 98 % of control under setting [8], 95 % of control under setting [9] and 101 % of control under setting [10].

With `Nc1ccc2c(SCCCCSc3c4ccccc4nc4cc(N)ccc34)c3ccccc3nc2c1`, the T/C runs as follows: under setting [14], 106 % of control; under setting [11], 100 % of control.

As to `COc1cc(OC)cc(C2SCC(=O)N2c2nncs2)c1` (stereo not given), the T/C is 107 % of control under setting [14], 98 % of control under setting [11] and 93 % of control under setting [12].

Consider `[N-]=[N+]=NC1(N=[N+]=[N-])C(=O)c2cccc3c2N(CCC3)C1=O` (stereo not given), for which the T/C under setting [15] was 92 % of control; the T/C under setting [16] is 114 % of control; the T/C (dose: 200.0 mg/kg/injection, schedule: Q01DX005 (ip), vehicle: Klucel (hydroxypropylcellulose) (HPC)) is 88 % of control.

For the compound `O=C(Nc1ccc(Cl)cc1)Nc1nnc(-c2cccc(-c3nnc(NC(=O)Nc4ccc(Cl)cc4)o3)c2)o1`, the T/C reads like this: under setting [5], 94 % of control; under setting [6], 96 % of control; under setting [7], 97 % of control.

As to `COC(=O)c1nc(N)nc(C(=O)OC)c1C(=O)c1ccc(N2CCN(c3ccc(C(=O)c4c(C(=O)OC)nc(N)nc4C(=O)OC)cc3)CC2)cc1`, the T/C runs as follows: under setting [14], 98 % of control; under setting [11], 97 % of control; under setting [12], 91 % of control.

Consider `CCN1C(=O)Nc2ccc(Cl)cc2C1(O)c1ccccc1` (stereo not given), for which the T/C is 95 % of control under setting [13], 102 % of control under setting [8] and 99 % of control under setting [9].

Regarding `O=C1OC2(C=C1Br)CCC21C=C(Br)C(=O)O1` (stereo not given), under setting [4], the T/C was 98 % of control.

Turning to `COC1/C=C/C=C(/C)Cc2cc(O)c(Cl)c(c2)N(C)C(=O)CC(OC(=O)C(C)C)C2(C)OC2C(C)C2CC1(O)NC(=O)O2` (stereo not given), the T/C (dose: 50.0 micrograms/kg/injection, schedule: Q01DX009 (ip), vehicle: saline + alcohol) is 153 % of control; the T/C (dose: 100.0 micrograms/kg/injection, schedule: Q01DX009 (ip), vehicle: saline + alcohol) was 177 % of control and 190 % of control; the T/C (dose: 200.0 micrograms/kg/injection, schedule: Q01DX009 (ip), vehicle: saline + alcohol) is 185 % of control and 221 % of control; the T/C (dose: 400.0 micrograms/kg/injection, schedule: Q01DX009 (ip), vehicle: saline + alcohol) is 177 % of control and 230 % of control; the T/C (dose: 800.0 micrograms/kg/injection, schedule: Q01DX009 (ip), vehicle: saline + alcohol) was 192 % of control and 205 % of control; the T/C (dose: 1000.0 micrograms/kg/injection, schedule: Q01DX009 (ip), vehicle: saline + alcohol) is 182 % of control.

`COc1cc(C2c3cc4c(cc3OC3(O)COC(=O)C23)OCO4)cc(OC)c1OC` (stereo not given): the T/C runs as follows: under setting [14], 88 % of control; under setting [11], 91 % of control; under setting [12], 86 % of control.

In the case of `CC(C)(C)/[N+]([O-])=C/C(c1ccccc1)C(/C=[N+](/[O-])C(C)(C)C)c1ccccc1` (stereo not given), the T/C under setting [14] is 100 % of control, the T/C under setting [11] is 98 % of control and the T/C under setting [12] is 98 % of control.

In the case of `NC(=O)CCCC(C(N)=O)c1ccccc1` (stereo not given), the T/C runs as follows: (dose: 100.0 mg/kg/injection, schedule: Q01DX001 (ip), vehicle: Klucel (hydroxypropylcellulose) (HPC)) 100 % of control; (dose: 200.0 mg/kg/injection, schedule: Q01DX001 (ip), vehicle: Klucel (hydroxypropylcellulose) (HPC)) 105 % of control; (dose: 400.0 mg/kg/injection, schedule: Q01DX001 (ip), vehicle: Klucel (hydroxypropylcellulose) (HPC)) 99 % of control.

Consider `CC1=NOC(=O)/C1=C/c1ccc2c(c1)OCO2`, for which the T/C under setting [1] was 106 % of control, the T/C under setting [2] was 105 % of control and the T/C under setting [3] was 113 % of control.

`CCOC(=O)N1c2ccccc2C=CC1OCC` (stereo not given): the T/C reads like this: (dose: 6.0 mg/kg/injection, schedule: Q04DX003 (ip), vehicle: other) 95 % of control; (dose: 12.0 mg/kg/injection, schedule: Q04DX003 (ip), vehicle: other) 100 % of control; (dose: 25.0 mg/kg/injection, schedule: Q04DX003 (ip), vehicle: other) 100 % of control.

`CCOC(=O)CCC1=C(C)c2cc3[n-]c(cc4nc(cc5[n-]c(cc1n2)c(CCC(=O)OCC)c5C)C=C4C)cc3C.[Ni+2]`: the T/C reads like this: under setting [15], 96 % of control; under setting [16], 92 % of control.
